Reference: US11781160B2, “Methods for the production of methacrylates” (priority 2018, dated 2023)

What was measured:
[1] = tested on: E. coli MG1655 soxR(R20H)acrR(V29G); assay: Growth in MSX medium with 20% (v/v) BMA, double mutant; type: cell-based, Escherichia coli
[2] = tested on: E. coli MG1655 soxR(R20H)acrR(T32fs); assay: as above; type: cell-based, Escherichia coli
E. coli BW25113 ΔsoxR = assay: Growth in MSX medium with 20% (v/v) BMA, knock-out strain; type: cell-based, Escherichia coli; details: 20% (v/v) BMA added immediately after inoculation
E. coli BW25113 ΔacrR = assay: as above; type: cell-based, Escherichia coli; details: 20% (v/v) BMA added immediately after inoculation
[3] = tested on: E. coli MG1655 acrR(V29G); assay: Growth in MSX medium with 20% (v/v) BMA, single mutation strain; type: cell-based, Escherichia coli; details: 20% (v/v) BMA added immediately after inoculation
[4] = tested on: E. coli MG1655 acrR(T32fs); assay: as above; type: cell-based, Escherichia coli; details: 20% (v/v) BMA added immediately after inoculation
[5] = tested on: gene transcription in strain 18; assay: Transcriptome analysis with added BMA, strain 18
Protocol: (§1) Transcriptome analysis was carried out to characterize transcriptional activity in mutant microorganisms using standard methods.
(§2) Sample Preparation • 1) Streak strains onto fresh MSX agar (15 g/L) plates directly from the cryostocks and incubate overnight at 37° C. • 2) Isolate single colonies and inoculate pre-cultures in MSX, using 50 ml shake flasks. Incubate overnight at 37° C. and 250 rpm. • 3) Inoculate cultures in MSX to an initial OD600 of 0.05, using 250 mL pyrex shake flasks with 24/29 neck join. Incubate at 37° C. and 250 rpm. Do 4 biological replicates (3 replicates for sequencing plus one backup)—4 flasks per strain. • 4) Seal shake flasks with sterile Suba seals. To monitor OD, take samples using a sterile syringe and needle after first swabbing the Suba seals with 70% ethanol. Monitor OD. • 5) When OD reaches 0.3, collect first sample for RNA extraction (“before” sample) into a pre-chilled falcon. Keep samples on ice. • 6) Immediately after, add 20% (v/v) BMA. Re-incubate cultures. • 7) Quickly process the samples according to the RNeasy kit protocol, until step 6 of protocol 1. Always keep samples on ice and store it at −80° C. until further use, if possible, flash freeze in liquid nitrogen it before storing. • 8) One hour after the first sample collection/BMA addition, collect the second sample for RNA extraction (“after” sample). Proceed as explained before. • 9) Continue to monitor the OD until the cultures reach 24 h. • To summarise, each strain tested will have 6 samples to send for sequencing, 3 collected right before the addition and 3 collected one hour after, plus 1 “back-up” for before and after, in case something goes wrong during extraction (8 samples total). Besides the WT strain with the addition of BMA, samples were also collected from a WT culture with no BMA, one hour after reaching OD of 0.3, as a control.
(§3) Transcription was compared for a double mutant and the wild-type in the presence and absence of BMA relative to the level in the wild type in the absence of BMA. For the avoidance of doubt the level in the table is the ratio of the level in the strain under the BMA exposure relative to the level in the wild type in the absence of added BMA.

[6] = tested on: gene transcription in strain 21; assay: Transcriptome analysis with added BMA, strain 21
Protocol: as §1, §2, §3

[7] = tested on: E. coli BW25113 isolate 2-rob(R156H) rpoC(L361R) ilvN(C41Y) ygbK(A294E) IpxM(168_185del); assay: Growth kinetics of isolated strain 2 with 20% v/v BMA
[8] = tested on: E. coli BW25113 isolate 3-rob(R156H) ilvN(C41Y) phoP(L11F) acrB(V448L) acrR(indels); assay: Growth kinetics of isolated strain 3 with 20% v/v BMA
[9] = tested on: E. coli BW25113 isolate 5-soxR(Leu139X), 580116(G > T) acrR(indels); assay: Growth kinetics of isolated strain 5 with 20% v/v BMA
[10] = tested on: E. coli BW25113 isolate 8-rob(R156H) rpoB(T1037P) torY(A87T) acrR(49Yfs); assay: Growth kinetics of isolated strain 8 with 20% v/v BMA
[11] = tested on: E. coli BW25113 isolate 19-marR(V84G) rpoC(R1075C) ompR(R15S) acrB(T3791) acrR(indels); assay: Growth kinetics of isolated strain 19 with 20% v/v BMA
[12] = tested on: E. coli BW25113 isolate 20-marR(V84G) rpoC(R1075C) ompR(R15S) acrR(indels); assay: Growth kinetics of isolated strain 20 with 20% v/v BMA
[13] = tested on: E. coli BW25113 isolate 21-marR(V84G) rpoC(R1075C) rpoC(A787V) ompR(R15S) acrB(V901l) acrR(indels); assay: Growth kinetics of isolated strain 21 with 20% v/v BMA
[14] = tested on: E. coli BW25113 isolate 22-rob(R156H) rpoB(T1037P) groL(P279L) acrR(49Yfs) 1197659(C > A); assay: Growth kinetics of isolated strain 22 with 20% v/v BMA
[15] = tested on: E. coli BW25113 isolate 23-soxR(R20L) rpoC(r1075C) 2133236( T> A) 3915915(T > G) acrR(indels); assay: Growth kinetics of isolated strain 23 with 20% v/v BMA
[16] = 20% (v/v) BMA added during mid-exponential phase
[17] = 20% (v/v) BMA added immediately after inoculation

In the case of `C=C(C)C(=O)OCCCC` [BMA, butyl 2-methylprop-2-enoate], the “Tolerance to BMA” value [1, 16] is reported as “enhanced tolerance to BMA compared to the soxR(R20H) mutation alone”, the “Growth compared with the single mutant with the soxR mutation” value [1, 17] is reported as “able to grow better than the single mutant” and the “Growth in the presence of BMA” value [1, 17] is reported as “able to grow”. The “Tolerance to BMA” value [2, 16] was “enhanced tolerance to BMA compared to the soxR(R20H) mutation alone”, the “Growth compared with the single mutant with the soxR mutation” value [2, 17] was “able to grow better than the single mutant” and the “Growth in the presence of BMA” value [2, 17] was “able to grow”. The “Growth in the presence of BMA” value (E. coli BW25113 ΔsoxR) was “unable to grow”, the “Growth in the presence of BMA” value (E. coli BW25113 ΔacrR) was “unable to grow” and the “Growth in the presence of BMA” value [3] was “able to grow”. The “Growth in the presence of BMA” value [4] was “able to grow”, the “IdhA transcription level relative to wild type without BMA” value [5] was 56.74 and the “acrA transcription level relative to wild type without BMA” value [5] was 6.47. The “acrB transcription level relative to wild type without BMA” value [5] was 10.12, the “adiY transcription level relative to wild type without BMA” value [5] was 21.13 and the “ariR transcription level relative to wild type without BMA” value [5] was 25.19. For the same compound, the “asr transcription level relative to wild type without BMA” value [5] was 74.22, the “bssR transcription level relative to wild type without BMA” value [5] was 134.14 and the “ibpA transcription level relative to wild type without BMA” value [5] was 74.55. The “ibpB transcription level relative to wild type without BMA” value [5] was 158.35, the “narG transcription level relative to wild type without BMA” value [5] was 25.46 and the “nirB transcription level relative to wild type without BMA” value [5] was 23.98. The “nirD transcription level relative to wild type without BMA” value [5] was 34.98, the “pspA transcription level relative to wild type without BMA” value [5] was 20.71 and the “pspB transcription level relative to wild type without BMA” value [5] was 20.94. The “pspD transcription level relative to wild type without BMA” value [5] was 18.60, the “pspc transcription level relative to wild type without BMA” value [5] was 21.37 and the “raiA transcription level relative to wild type without BMA” value [5] was 44.16. For the same compound, the “rmf transcription level relative to wild type without BMA” value [5] was 20.96, the “soxS transcription level relative to wild type without BMA” value [5] was 1.17 and the “spy transcription level relative to wild type without BMA” value [5] was 4.36. The “ybfA transcription level relative to wild type without BMA” value [5] was 24.95, the “ybhG transcription level relative to wild type without BMA” value [5] was 18.85 and the “ybiH transcription level relative to wild type without BMA” value [5] was 12.75. The “ydgU transcription level relative to wild type without BMA” value [5] was 28.47, the “yhjx transcription level relative to wild type without BMA” value [5] was 251.44 and the “yibT transcription level relative to wild type without BMA” value [5] was 83.81. The “ymgA transcription level relative to wild type without BMA” value [5] was 11.97, the “ymgC transcription level relative to wild type without BMA” value [5] was 12.62 and the “ynfM transcription level relative to wild type without BMA” value [5] was 55.40. The “yohk transcription level relative to wild type without BMA” value [5] was 14.54, the “IdhA transcription level relative to wild type without BMA” value [6] was 20.48 and the “acrA transcription level relative to wild type without BMA” value [6] was 5.63. For the same compound, the “acrB transcription level relative to wild type without BMA” value [6] was 8.93, the “adiY transcription level relative to wild type without BMA” value [6] was 10.74 and the “ariR transcription level relative to wild type without BMA” value [6] was 6.13. For the same compound, the “asr transcription level relative to wild type without BMA” value [6] was 11.63, the “bssR transcription level relative to wild type without BMA” value [6] was 198.48 and the “ibpA transcription level relative to wild type without BMA” value [6] was 29.21. The “ibpB transcription level relative to wild type without BMA” value [6] was 30.97, the “narG transcription level relative to wild type without BMA” value [6] was 65.34 and the “nirB transcription level relative to wild type without BMA” value [6] was 39.43. For the same compound, the “nirD transcription level relative to wild type without BMA” value [6] was 42.50, the “pspA transcription level relative to wild type without BMA” value [6] was 21.16 and the “pspB transcription level relative to wild type without BMA” value [6] was 14.98. The “pspD transcription level relative to wild type without BMA” value [6] was 14.80, the “pspc transcription level relative to wild type without BMA” value [6] was 14.67 and the “raiA transcription level relative to wild type without BMA” value [6] was 22.55. The “rmf transcription level relative to wild type without BMA” value [6] was 36.77, the “soxS transcription level relative to wild type without BMA” value [6] was 1.08 and the “spy transcription level relative to wild type without BMA” value [6] was 1.77. The “ybfA transcription level relative to wild type without BMA” value [6] was 33.06, the “ybhG transcription level relative to wild type without BMA” value [6] was 9.26 and the “ybiH transcription level relative to wild type without BMA” value [6] was 7.20. For the same compound, the “ydgU transcription level relative to wild type without BMA” value [6] was 6.39, the “yhjx transcription level relative to wild type without BMA” value [6] was 3.11 and the “yibT transcription level relative to wild type without BMA” value [6] was 95.47. The “ymgA transcription level relative to wild type without BMA” value [6] was 2.43, the “ymgC transcription level relative to wild type without BMA” value [6] was 1.53 and the “ynfM transcription level relative to wild type without BMA” value [6] was 65.39. For the same compound, the “yohk transcription level relative to wild type without BMA” value [6] was 7.09, the Growth rate [7] was 0.532 ± 0.028 h⁻¹ and the Lag time [7] was 6 h. It also gave a Max cell concentration [7] of 0.651 ± 0.052 g/L, a Growth rate [8] of 0.566 ± 0.010 h⁻¹ and a Lag time [8] of 4 h. The Max cell concentration [8] was 0.790 ± 0.076 g/L, the Growth rate [9] was 0.625 ± 0.052 h⁻¹ and the Lag time [9] was 5 h. The Max cell concentration [9] was 0.597 ± 0.096 g/L, the Growth rate [10] was 0.712 ± 0.015 h⁻¹ and the Lag time [10] was 5 h. For the same compound, the Max cell concentration [10] was 0.435 ± 0.010 g/L, the Growth rate [11] was 0.701 ± 0.007 h⁻¹ and the Lag time [11] was 5 h. It also gave a Max cell concentration [11] of 0.653 ± 0.023 g/L, a Growth rate [12] of 0.719 ± 0.041 h⁻¹ and a Lag time [12] of 5 h. It also gave a Max cell concentration [12] of 0.589 ± 0.012 g/L, a Growth rate [13] of 0.703 ± 0.030 h⁻¹ and a Lag time [13] of 5 h. It also gave a Max cell concentration [13] of 0.438 ± 0.022 g/L, a Growth rate [14] of 0.701 ± 0.015 h⁻¹ and a Lag time [14] of 4 h. It also gave a Max cell concentration [14] of 0.523 ± 0.024 g/L, a Growth rate [15] of 0.722 ± 0.019 h⁻¹ and a Lag time [15] of 4 h. For the same compound, the Max cell concentration [15] was 0.529 ± 0.023 g/L.
